From paper PMC6979384, “Characterization of the plant homeodomain (PHD) reader family for their histone tail interactions” (Epigenetics & Chromatin, 2020)
Where no end group is shown, it is not given here.

Experiments:
Assay in all cases: Histone peptide microarray
Format in all cases: binding, human
KDM5B (3) = conditions: KDM5B (3); sheet "Array Heatmap"; each array performed twice, total n = 4
Text: (§1) To more comprehensively define the histone interactions of the 31 PHD readers identified from the domain microarray analyses, we probed each on an alternate microarray platform containing a library of 293 synthetic histone peptides with single or combinatorial PTMs (Additional file 2: Figure S4 and Additional file 3: Table S2).
(§2) The 31 GST-tagged PHD readers identified in the PHD finger domain array were expressed and purified as previously. Histone peptide arrays and peptide pulldown assays were conducted as recently described (specifically, the optimized protocol from Petell et al. for the former).
(§3) Supplementary file 13072_2020_328_MOESM3_ESM.xlsx: Additional file 3: Table S2. […] Excel Tab Peptide List is a compiled list of the entire 293 histone peptide library with amino acid sequence ranges. […] Each number corresponds to the peptide number designated in Peptide List. Excel Tab Average Signals is a compiled set of binding data: chromatin reader at 0.5 μM vs. entire 293 peptide library. Data is presented as the average and standard deviation of 4 replicates. The average signals are colored to indicate signal intensity with green being strong and white being weak/low. […] Key: red= stronger relative binding; blue = weaker relative binding. Excel Tab Array info summary is a table summarizing the domains, sequence coverage, array signal range, and noise for each of the GST-tagged readers assayed on the peptide microarrays.

PHF21A = conditions: PHF21A; sheet "Array Heatmap"; each array performed twice, total n = 4
Text: as §1, §2, §3

PHF2 = conditions: PHF2; sheet "Array Heatmap"; each array performed twice, total n = 4
Text: as §1, §2, §3

KDM5B (1) = conditions: KDM5B (1); sheet "Array Heatmap"; each array performed twice, total n = 4
Text: as §1, §2, §3

DPF2 (PPC2W2) = conditions: DPF2 (PPC2W2); sheet "Array Heatmap"; each array performed twice, total n = 4
Text: as §1, §2, §3

PHF23 = conditions: PHF23; sheet "Array Heatmap"; each array performed twice, total n = 4
Text: as §1, §2, §3

AIRE (PP) = conditions: AIRE (PP); sheet "Array Heatmap"; each array performed twice, total n = 4
Text: as §1, §2, §3

BPTF (PB) = conditions: BPTF (PB); sheet "Array Heatmap"; each array performed twice, total n = 4
Text: as §1, §2, §3

CHD4 (PPCC) = conditions: CHD4 (PPCC); sheet "Array Heatmap"; each array performed twice, total n = 4
Text: as §1, §2, §3

MLL5 = conditions: MLL5; sheet "Array Heatmap"; each array performed twice, total n = 4
Text: as §1, §2, §3

ING5 = conditions: ING5; sheet "Array Heatmap"; each array performed twice, total n = 4
Text: as §1, §2, §3

PHRF1 (RP) = conditions: PHRF1 (RP); sheet "Array Heatmap"; each array performed twice, total n = 4
Text: as §1, §2, §3

KDM5A (3) = conditions: KDM5A (3); sheet "Array Heatmap"; each array performed twice, total n = 4
Text: as §1, §2, §3

PHF8 = conditions: PHF8; sheet "Array Heatmap"; each array performed twice, total n = 4
Text: as §1, §2, §3

SP140L = conditions: SP140L; sheet "Array Heatmap"; each array performed twice, total n = 4
Text: as §1, §2, §3

KDM7A = conditions: KDM7A; sheet "Array Heatmap"; each array performed twice, total n = 4
Text: as §1, §2, §3

DIDO1 = conditions: DIDO1; sheet "Array Heatmap"; each array performed twice, total n = 4
Text: as §1, §2, §3

ING4 = conditions: ING4; sheet "Array Heatmap"; each array performed twice, total n = 4
Text: as §1, §2, §3

MORC3 (CW) = conditions: MORC3 (CW); sheet "Array Heatmap"; each array performed twice, total n = 4
Text: as §1, §2, §3

TRIM66 (PB) = conditions: TRIM66 (PB); sheet "Array Heatmap"; each array performed twice, total n = 4
Text: as §1, §2, §3

CHD5 (PPCC) = conditions: CHD5 (PPCC); sheet "Array Heatmap"; each array performed twice, total n = 4
Text: as §1, §2, §3

BAZ2B = conditions: BAZ2B; sheet "Array Heatmap"; each array performed twice, total n = 4
Text: as §1, §2, §3

ING3 = conditions: ING3; sheet "Array Heatmap"; each array performed twice, total n = 4
Text: as §1, §2, §3

KDM5A (1) = conditions: KDM5A (1); sheet "Array Heatmap"; each array performed twice, total n = 4
Text: as §1, §2, §3

ING2 = conditions: ING2; sheet "Array Heatmap"; each array performed twice, total n = 4
Text: as §1, §2, §3

CHD5 (PCC) = conditions: CHD5 (PCC); sheet "Array Heatmap"; each array performed twice, total n = 4
Text: as §1, §2, §3

KDM4C (TTP) = conditions: KDM4C (TTP); sheet "Array Heatmap"; each array performed twice, total n = 4
Text: as §1, §2, §3

TAF3 = conditions: TAF3; sheet "Array Heatmap"; each array performed twice, total n = 4
Text: as §1, §2, §3

PHF13 = conditions: PHF13; sheet "Array Heatmap"; each array performed twice, total n = 4
Text: as §1, §2, §3

ING1 = conditions: ING1; sheet "Array Heatmap"; each array performed twice, total n = 4
Text: as §1, §2, §3

RAG2 = conditions: RAG2; sheet "Array Heatmap"; each array performed twice, total n = 4
Text: as §1, §2, §3

Substance: H2A.X (1-17): H2AX 1-17 (SGRGKTGGKARAKAKSR; UniProt P16104 2-18, looked up, fragment)
- Array Heatmap value (peptide array signal) (KDM5B (3)): 0.4974
- Array Heatmap value (peptide array signal) (PHF21A): 0.4705
- Array Heatmap value (peptide array signal) (PHF2): 0.3941
- Array Heatmap value (peptide array signal) (KDM5B (1)): 0.6651
- Array Heatmap value (peptide array signal) (DPF2 (PPC2W2)): 0.6636
- Array Heatmap value (peptide array signal) (PHF23): 0.4786
- Array Heatmap value (peptide array signal) (AIRE (PP)): 0.5574
- Array Heatmap value (peptide array signal) (BPTF (PB)): 0.3452
- Array Heatmap value (peptide array signal) (CHD4 (PPCC)): 0.5416
- Array Heatmap value (peptide array signal) (MLL5): 0.5474
- Array Heatmap value (peptide array signal) (ING5): 0.3684
- Array Heatmap value (peptide array signal) (PHRF1 (RP)): 0.3918
- Array Heatmap value (peptide array signal) (KDM5A (3)): 0.4093
- Array Heatmap value (peptide array signal) (PHF8): 0.3196
- Array Heatmap value (peptide array signal) (SP140L): 0.3804
- Array Heatmap value (peptide array signal) (KDM7A): 0.5198
- Array Heatmap value (peptide array signal) (DIDO1): 0.6032
- Array Heatmap value (peptide array signal) (ING4): 0.4775
- Array Heatmap value (peptide array signal) (MORC3 (CW)): 0.3549
- Array Heatmap value (peptide array signal) (TRIM66 (PB)): 0.5377
- Array Heatmap value (peptide array signal) (CHD5 (PPCC)): 0.5657
- Array Heatmap value (peptide array signal) (BAZ2B): 0.5024
- Array Heatmap value (peptide array signal) (ING3): 0.4419
- Array Heatmap value (peptide array signal) (KDM5A (1)): 0.4987
- Array Heatmap value (peptide array signal) (ING2): 0.5852
- Array Heatmap value (peptide array signal) (CHD5 (PCC)): 0.8255
- Array Heatmap value (peptide array signal) (KDM4C (TTP)): 0.5423
- Array Heatmap value (peptide array signal) (TAF3): 0.2689
- Array Heatmap value (peptide array signal) (PHF13): 0.6046
- Array Heatmap value (peptide array signal) (ING1): 0.4806
- Array Heatmap value (peptide array signal) (RAG2): 0.2388

Substance: H2A.X K5ac: H2AX 1-17 (SGRGK(Ac)TGGKARAKAKSR; UniProt P16104 2-18, looked up, fragment)
- Array Heatmap value (peptide array signal) (KDM5B (3)): 0.4746
- Array Heatmap value (peptide array signal) (PHF21A): 0.4552
- Array Heatmap value (peptide array signal) (PHF2): 0.3936
- Array Heatmap value (peptide array signal) (KDM5B (1)): 0.7034
- Array Heatmap value (peptide array signal) (DPF2 (PPC2W2)): 0.6362
- Array Heatmap value (peptide array signal) (PHF23): 0.5099
- Array Heatmap value (peptide array signal) (AIRE (PP)): 0.4642
- Array Heatmap value (peptide array signal) (BPTF (PB)): 0.3356
- Array Heatmap value (peptide array signal) (CHD4 (PPCC)): 0.5228
- Array Heatmap value (peptide array signal) (MLL5): 0.5039
- Array Heatmap value (peptide array signal) (ING5): 0.3639
- Array Heatmap value (peptide array signal) (PHRF1 (RP)): 0.4233
- Array Heatmap value (peptide array signal) (KDM5A (3)): 0.4343
- Array Heatmap value (peptide array signal) (PHF8): 0.3518
- Array Heatmap value (peptide array signal) (SP140L): 0.3645
- Array Heatmap value (peptide array signal) (KDM7A): 0.4169
- Array Heatmap value (peptide array signal) (DIDO1): 0.6192
- Array Heatmap value (peptide array signal) (ING4): 0.4505
- Array Heatmap value (peptide array signal) (MORC3 (CW)): 0.3506
- Array Heatmap value (peptide array signal) (TRIM66 (PB)): 0.5335
- Array Heatmap value (peptide array signal) (CHD5 (PPCC)): 0.549
- Array Heatmap value (peptide array signal) (BAZ2B): 0.4631
- Array Heatmap value (peptide array signal) (ING3): 0.4453
- Array Heatmap value (peptide array signal) (KDM5A (1)): 0.4768
- Array Heatmap value (peptide array signal) (ING2): 0.5785
- Array Heatmap value (peptide array signal) (CHD5 (PCC)): 0.7832
- Array Heatmap value (peptide array signal) (KDM4C (TTP)): 0.5139
- Array Heatmap value (peptide array signal) (TAF3): 0.2702
- Array Heatmap value (peptide array signal) (PHF13): 0.5821
- Array Heatmap value (peptide array signal) (ING1): 0.4851
- Array Heatmap value (peptide array signal) (RAG2): 0.2437
